Assay results taken from PMC3625590, “NBM-T-L-BMX-OS01, Semisynthesized from Osthole, Is a Novel Inhibitor of Histone Deacetylase and Enhances Learning and Memory in Rats” (Evidence-based Complementary and Alternative Medicine : eCAM, 2013).

Columns and labels:
CREB = CREB phosphorylation at Ser133 in hippocampal cultured neurons; type: cell-based, Sprague-Dawley rats
Description: The primary hippocampal culture was prepared as described previously. To culture embryonic hippocampal primary neurons, pregnant Sprague-Dawley rats were purchased from the National Laboratory Center in Taiwan. The hippocampal tissue from the embryos of the Sprague-Dawley rats (E19) was dissociated with 100 U/mL of papain (Sigma-Aldrich) and plated onto poly-L-lysine-coated coverslips at a density of 1 × 10^4 cells/cm^2 with a minimal essential medium containing 5% calf serum, 5% horse serum, and 50 ng/mL insulin-transferrin-selenite (Sigma-Aldrich). Three hours after plating, the medium was replaced with 2% of a B27-neurobasal medium (Invitrogen, Carlsbad, CA, USA) containing 0.5 mM glutamine and 12.5 μM glutamate.
The hippocampus tissue and primary hippocampal cells were lysed and sonicated in an RIPA buffer (50 mM Tris-HCl (pH 7.4), 150 mM NaCl, 2 mM EDTA, 1% IGEPAL CA-630, 1 mM phenylmethylsulfonyl fluoride (PMSF), 20 μg/mL pepstatin A, 20 μg/mL leupeptin, 20 μg/mL aprotinin, 50 mM NaF, and 1 mM Na3VO4). The protocol was performed as described previously. The lysate was resolved by 8% SDS-PAGE. […] The protein bands were quantified using the NIH Image J Software.

HEK293T cells = assay: CRE promoter-luciferase assay; type: cell-based
Description: Supplemental Materials and Methods
2.1. HEK293T cells. HEK293T cells were maintained in Dulbecco’s modified Eagle’s medium (Invitrogen) supplemented with 10% fetal calf serum (Invitrogen). Cultures were maintained in a humidified 5% CO2-95% air atmosphere at 37°C.
2.2. Immunocytochemistry. Cultured hippocampal neurons were fixed with 4% paraformaldehyde for 15 min and permeablized with 0.1% Triton X-100 for 20 min at room temperature (RT). The primary Mouse anti-β III tubulin and anti-actin (Millipore) Abs were added for 1 h at RT. After wash, Alexa Fluor 488 […] Ab (Molecular Probes, Europe BV, Leiden, Netherlands) were incubated with cells for 1 h at RT. Coverslips were mounted, and images were obtained by using a Axio Observer D1 microscope (Zeiss, Jena, Germany). Neuronal process longer than […] is defined as neurites.
2.3. Western blot. […]
The lysate was resolved by 8% SDS-PAGE. […] The protein bands were quantified using the NIH Image J Software. […]
FBS. […] The activity of firefly luciferase was measured as firefly luciferase luminescence after reaction with luciferase reagent for 15 min. Next, the activity of Renilla luciferase is measured as Renilla luciferase luminescence after reaction with Stop & Glo reagent for 15 min.
The ratio of firefly luciferase activity to Renilla luciferase activity was calculated and normalized to vector control.

HDAC8 = target: T1, HDAC8 (Homo sapiens, UniProt Q9BY41); conditions: cited from earlier work
T1 sequence (Q9BY41 1-377): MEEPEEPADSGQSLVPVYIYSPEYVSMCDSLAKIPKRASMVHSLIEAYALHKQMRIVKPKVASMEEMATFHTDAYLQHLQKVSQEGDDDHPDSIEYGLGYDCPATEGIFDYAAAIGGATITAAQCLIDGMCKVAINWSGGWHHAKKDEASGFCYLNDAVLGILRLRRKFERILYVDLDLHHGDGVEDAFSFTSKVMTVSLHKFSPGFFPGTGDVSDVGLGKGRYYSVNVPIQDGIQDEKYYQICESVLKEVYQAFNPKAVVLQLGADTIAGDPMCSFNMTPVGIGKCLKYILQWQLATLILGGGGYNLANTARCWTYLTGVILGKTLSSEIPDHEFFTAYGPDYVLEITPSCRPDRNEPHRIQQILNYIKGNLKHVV

## O=C(CCCCCCC(=O)Nc1ccccc1)NO [SAHA, suberoylanilide hydroxamic acid, reference compound]
CREB
  CREB phosphorylation at Ser133: increased CREB phosphorylation at Ser133
HEK293T cells
  CRE-mediated promoter activity: increased
HDAC8
  inhibition of HDAC8 deacetylase activity: little inhibition of HDAC8
